Laboratory results published in publication PMC12406253, “Exploration of the Neuromodulatory Properties of Fyn and GSK-3β Kinases Exploiting 7‑Azaindole-Based Inhibitors” (Journal of Medicinal Chemistry, 2025).
Each block holds one compound with its values, some of them ahead of it.

How the values were obtained:
[1] = BBB permeability in hCMEC/D3 transwell model; details: human
Experimental: To this aim, the immortalized human brain endothelial cell line (hCMEC/D3) was used since it mimics the brain endothelium-restricted permeability and expresses most of the transporters and receptors present in vivo, constituting a valuable in vitro model of the human BBB crossing system.
BBB permeability assay was conducted as described in Albertini et al. The brain microvascular endothelial cells (hCMEC/D3) were seeded at the density of 5 × 10^4 cells per cm^2 in the upper compartment of Transwell filters (polyester, pore size 0.4 μm, 12-well tissue culture transwell; Corning), precoated with rat tail collagen type I (0.1 mg/mL; Roche). They were grown for 7 days up to confluence in Endothelial Cell Growth Medium 2 (Promocell), supplemented with penicillin/streptomycin 100 U/mL, in a humidified, 5% CO2 incubator at 37 °C. Confluent monolayers were washed in prewarmed HBSS buffer, and the selected compounds were added to the apical (AP) side at a concentration of 100 μM. […] Samples (100 μL) were collected from the BL side at different time points (15, 30, 60, and 90 min) and then replaced with the corresponding volume of HBSS buffer. […] The concentration of compounds was determined using a Ultimate 3000 HPLC system (ThermoFisher) with UV–vis detection at the maximum absorption wavelength of each compound except for inulin as determined by a spectrophotometric method using a Tecan Sunrise absorbance microplate reader. […] The permeability coefficient (Papp) was calculated as follows: Papp = (ΔQ/Δt)/(C [donor] × A), where ΔQ/Δt represents the permeation rate (mol/s), C [donor] is the initial compound concentration in the donor compartment at time 0 (mol/cm^3), and A represents the surface area of the filter (1.12 cm^2).

human recombinant GSK-3β = human recombinant GSK-3β (Homo sapiens, UniProt P49841); test: GSK-3β kinase assay, LANCE Ultra TR-FRET; format: biochemical; details: for IC50: mean ± SD of at least three independent determinations, ATP near Km
Sequence of human recombinant GSK-3β (P49841 whole entry): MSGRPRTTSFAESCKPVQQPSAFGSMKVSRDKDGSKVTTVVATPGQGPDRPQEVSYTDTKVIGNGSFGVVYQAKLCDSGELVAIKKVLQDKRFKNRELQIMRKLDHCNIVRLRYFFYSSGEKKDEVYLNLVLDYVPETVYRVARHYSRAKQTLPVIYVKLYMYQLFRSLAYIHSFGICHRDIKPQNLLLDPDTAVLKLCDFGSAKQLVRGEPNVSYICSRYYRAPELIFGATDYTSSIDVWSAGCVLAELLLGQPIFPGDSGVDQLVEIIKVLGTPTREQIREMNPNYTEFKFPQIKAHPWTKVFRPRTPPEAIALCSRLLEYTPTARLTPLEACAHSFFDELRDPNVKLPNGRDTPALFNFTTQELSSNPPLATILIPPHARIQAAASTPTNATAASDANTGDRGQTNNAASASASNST
Experimental: GSK-3β and FYNα kinase assays were run in 384-well microplates (OptiPlate-384, White, PerkinElmer) in a total reaction volume of 20 μL. The inhibitory potency against human recombinant GSK-3β and FYNα (Carna Biosciences) was evaluated using the LANCE Ultra (PerkinElmer) time-resolved fluorescence resonance energy transfer (TR-FRET) by measuring the phosphorylation of the ULight-labeled substrate, according to the manufacturer's instructions. […] Briefly, test compounds and staurosporine (reference compound) or DMSO (control) are mixed with the enzyme (GSK-3β: 2 nM and FYNα: 1 nM) in a buffer containing 50 mM HEPES (pH 7.5), 1 mM EGTA, 10 mM MgCl2, 2 mM DTT, and 0.01% Tween-20. […] Following incubation, the reaction is stopped by adding 6 mM EDTA. After 5 min, the antiphospho antibody labeled with europium chelate is added. After 1 more hour, the kinase reaction is monitored by irradiation at 320 nm and the fluorescence measured at 615 and 665 nm, using EnVision 2014 Multilabel Reader (PerkinElmer). The calculated signal ratio at 665/615 nm is proportional to the extent of ULight-substrate phosphorylation. The compounds were tested at 11 different concentrations ranging from 3 nM up to 100 μM in triplicate. […] The results were expressed as a percent inhibition of the control enzyme activity. Dose-response curves were run in at least three independent experiments, performed in three technical replicates. IC50 values (concentrations causing half-maximal enzyme inhibition) were determined by nonlinear regression analysis of the Log[concentration]/response curves generated with mean replicate values using a four parameter Hill equation curve fitting with GraphPad Prism 8 (GraphPad Software Inc., CA-USA).

FYNα = FYNα (Homo sapiens, UniProt P06241); test: FYNα kinase assay, LANCE Ultra TR-FRET; format: biochemical; details: for IC50: mean ± SD of at least three independent determinations, ATP near Km, read-out: Fyn IC50
Sequence of FYNα (P06241 whole entry): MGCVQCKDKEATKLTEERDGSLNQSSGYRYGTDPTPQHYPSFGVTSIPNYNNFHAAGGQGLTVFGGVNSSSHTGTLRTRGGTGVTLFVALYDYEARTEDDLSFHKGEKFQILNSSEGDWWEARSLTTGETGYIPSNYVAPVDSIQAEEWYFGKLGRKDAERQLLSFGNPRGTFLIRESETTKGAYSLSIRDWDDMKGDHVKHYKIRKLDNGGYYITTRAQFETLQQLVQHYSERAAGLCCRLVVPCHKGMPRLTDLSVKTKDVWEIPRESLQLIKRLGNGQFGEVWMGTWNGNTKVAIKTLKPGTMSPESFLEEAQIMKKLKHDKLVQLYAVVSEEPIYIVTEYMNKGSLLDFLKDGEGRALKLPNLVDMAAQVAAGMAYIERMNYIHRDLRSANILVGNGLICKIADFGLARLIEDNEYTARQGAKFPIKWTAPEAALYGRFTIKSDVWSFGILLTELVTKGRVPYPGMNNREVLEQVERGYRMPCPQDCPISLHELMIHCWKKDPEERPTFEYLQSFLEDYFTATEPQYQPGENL
Experimental: GSK-3β and FYNα kinase assays were run in 384-well microplates (OptiPlate-384, White, PerkinElmer) in a total reaction volume of 20 μL. The inhibitory potency against human recombinant GSK-3β and FYNα (Carna Biosciences) was evaluated using the LANCE Ultra (PerkinElmer) time-resolved fluorescence resonance energy transfer (TR-FRET) by measuring the phosphorylation of the ULight-labeled substrate, according to the manufacturer’s instructions. The synthetic peptide surrounding Ser641 of human muscle glycogen synthase (ULight-GS (Ser641/pSer657)) and the synthetic 28-amino acid peptide containing eight Tyr residues placed in different amino acid contexts (ULightTM-TK (PT66)) were selected as specific substrates for GSK-3β and FYNα, respectively. Briefly, test compounds and staurosporine (reference compound) or DMSO (control) are mixed with the enzyme (GSK-3β: 2 nM and FYNα: 1 nM) in a buffer containing 50 mM HEPES (pH 7.5), 1 mM EGTA, 10 mM MgCl2, 2 mM DTT, and 0.01% Tween-20. […] Following incubation, the reaction is stopped by adding 6 mM EDTA. After 5 min, the antiphospho antibody labeled with europium chelate is added. After 1 more hour, the kinase reaction is monitored by irradiation at 320 nm and the fluorescence measured at 615 and 665 nm, using EnVision 2014 Multilabel Reader (PerkinElmer). The calculated signal ratio at 665/615 nm is proportional to the extent of ULight-substrate phosphorylation. The compounds were tested at 11 different concentrations ranging from 3 nM up to 100 μM in triplicate. […] The results were expressed as a percent inhibition of the control enzyme activity.
Dose–response curves were run in at least three independent experiments, performed in three technical replicates. IC50 values (concentrations causing half-maximal enzyme inhibition) were determined by nonlinear regression analysis of the Log[concentration]/response curves generated with mean replicate values using a four parameter Hill equation curve fitting with GraphPad Prism 8 (GraphPad Software Inc., CA-USA).

[2] = system: primary rat cerebellar granule neurons (CGNs); test: Neurotoxicity, cell viability in CGNs (MTT); format: cell-based; details: 5, 10, and 25 μM, 24 h
Experimental: A preliminary cell viability assessment was conducted in primary rat cerebellar granule neurons (CGNs), which are considered a reliable model for studying cellular and molecular mechanisms of survival/apoptosis and neurodegeneration/neuroprotection.
Primary cerebellar granule cells were dissociated from cerebella and plated on 96-well plates, previously coated with 10 μg/mL poly-L-lysine, at a density of 1.2 × 10^5 cells/0.2 mL medium/well in BME supplemented with 10% heat-inactivated FBS (Life Technologies), 2 mmol/L glutamine, 100 μmol/L gentamicin sulfate, and 25 mM KCl (all from Sigma-Aldrich). Sixteen hours later, 10 μM cytosine arabinofuranoside (Sigma-Aldrich) was added to avoid glial proliferation. After 7 days in vitro, differentiated neurons were shifted to serum-free BME medium and exposed to increasing concentrations (5 μM, 10 μM, 25 μM) of compounds of interest for 24 h. Then, cell viability was evaluated through the MTT assay.

[3] = system: immortalized murine microglia N9; test: Immunomodulation in LPS-treated N9 microglia, Western blot of iNOS and TREM2; details: 2.5 and 5 μM; 100 ng/mL LPS, 24 h
Experimental: To gain a conclusive answer on the potential role of these kinase inhibitors in counteracting neuroinflammatory processes, after the verified induced astrocytic polarization, the ability of selected compounds to modulate inflammatory response was analyzed by favoring the immunomodulatory switch from neurotoxic M1 phenotype of microglia to phagocytic and neuroprotective M2 phenotype, evaluating inducible nitric oxide synthase (iNOS) and TREM2 as M1 and M2 markers (Figure ).
The microglial phenotype was evaluated through Western blot analysis of the pro-inflammatory iNOS and anti-inflammatory-TREM2 markers.

[4] = system: neurospheres (NPCs from the subventricular zone); test: Neurosphere growth analysis (NPC proliferation); format: cell-based, mice; details: 0.1, 1, and 5 μM; 7 days
Experimental: Based on that, we further investigated the neurogenic and differentiation potential of our kinase inhibitors in cell culture of neurospheres, which are floating pools of NPCs coming from the subventricular zone (SVZ) of six-month-old mice. Particularly, we first analyzed the variation, during 7 days, in number and size of neurosphere population with and without treatment.
To investigate the effect of compounds of interest in neurospheres’ growth rate, single spheres were plated in suspension in 96-well plates (5 × 10^3 cells/well) in the presence of compounds (0.1 μM, 1 μM, and 5 μM) in complete DMEM F-12 culture medium. One image/well was acquired every day by using the Sartorius Incucyte Live-Cell Analysis System and evaluated through the Brightfield Spheroid Analysis Software Module. Only aggregates with areas larger than 400 μm^2 were considered for statistical analysis.

[5] = system: primary rat cerebellar granule neurons (CGNs); test: Neuroprotection in CGNs, serum/potassium deprivation (MTT); format: cell-based; details: 5, 10, and 25 μM, 48 h
Excerpt: First, we evaluated the neuroprotective properties of the selected compounds in the same cell line, once the expression of Fyn and GSK-3β in this cellular model was verified (Figure S2), after a serum/potassium deprivation experiment, which simulates physiological aging (and mortality), triggering around 20% of cell death. In particular, 7 days differentiated CGNs were exposed to serum-free BME medium with low extracellular concentration of K^+ ions and treated at selected doses (i.e., 5, 10, and 25 μM) of compounds for 48 h. Neuronal viability was then determined with an MTT assay.
To evaluate the neuroprotective effect of our compounds, we tested increasing concentrations (5 μM, 10 μM, 25 μM) of compounds of interest in differentiated CGNs switched to serum-free BME medium with 5 mM KCl (serum-potassium deprivation) for 48 h to mimic in vitro the naturally occurring death of granule cells. Neuroprotection was evaluated through MTT assay.
For MTT assay, thiazolyl blue was added to the culture medium at a final concentration of 0.1 mg/mL. Following a 20 min incubation at 37 °C in the dark, the MTT precipitate was dissolved in 0.1 M Tris–HCl pH 7.5 buffer containing 5% Triton X-100 (all from Sigma-Aldrich) and absorbance was read at 570 nm in a microplate spectrophotometric reader (Bio-Rad).

[6] = system: neurospheres (NPCs from the subventricular zone); test: Neurosphere differentiation, immunofluorescence of DCX, GFAP, OLIG2; format: cell-based, mice; details: 1 μM; 7 days
Excerpt: Lastly, we move forward to evaluate the neuromodulatory profile of selected compounds that involves the capability to polarize the spontaneous differentiation of neurospheres, which potentially can maturate in neurons or macroglia, such as astrocytes and oligodendrocytes. Modulating NPC differentiation is especially relevant under neurodegenerative conditions as it could offer an intriguing opportunity to achieve polyhedric therapeutic effects. Importantly, neuronal differentiation may help to counteract the progressive neuronal loss, while promoting oligodendrocyte phenotype could support remyelination and neuronal function and the astrocytic polarization may aid to foster a neuroprotective profile. Particularly, after 7 days of treatment at 1 μM, in the same experimental conditions previously reported, cells were fixed and stained with different antibody markers such as doublecortin (DCX) for the immature neurons, glial fibrillary acidic protein (GFAP) for astrocytes, and oligodendrocyte transcription factor 2 (OLIG2) for oligodendrocyte precursors for immunofluorescence analysis (Figure a). […] By driving the maturation of astrocytes, compounds 41 and 43 could exert neuroprotection through multiple mechanisms, including the secretion of neurotrophic factors, enhancement of antioxidant defenses, regulation of water balance, ion homeostasis, and glutamate buffering and recycling. Furthermore, astrocytes support the integrity of the blood–brain barrier (BBB) and aid in the refinement of neural networks via synaptic pruning, further reinforcing their role in preserving brain function and structure.
NSCs were initially obtained by SVZ microdissection of 6 months-old C57BL/6N wild-type male mice (Mus musculus) and routinely cultured in suspension in DMEM-F12 (Gibco; ThermoFisher Scientific, Waltham, MA, USA) supplemented with 2 mM glutamine, 10 μg/mL insulin from bovine pancreas (Sigma-Aldrich; St Louis, MO, USA), 20 ng/mL epidermal growth factor (EGF; PeproTech EC, London, UK), 20 ng/mL fibroblast growth factor-2 (FGF2; PeproTech), 1% N2 (ThermoFisher Scientific), 1% B27 (ThermoFisher Scientific), 10 units/mL penicillin, and 10 μg streptomycin.
To assess the effect of compounds of interest in NSCs differentiation, 30 spheres were plated on 13 mm glass coverslips, previously coated with Matrigel matrix (Corning; New York, USA), in complete DMEM F-12 medium, and treated with 1 μM of compounds of interest. After 7DIV, neurospheres were fixed for 20 min with 4% PFA in PBS 0.1% pH 7.4. Fixed neurospheres were permeabilized in 0.1% Triton/PBS and nonspecific sites were blocked for 1 h with 0.1% Triton/PBS and 5% normal goat serum (Sigma-Aldrich; St Louis, MO, USA). Cells were then incubated overnight at 4 °C with the following primary antibodies: Anti-Doublecortin DCX (Abcam, Cambridge, UK), GFAP (Dakopatts), OLIG2 (Santa Cruz Biotechnology), 1:500 dilution in 0.1% Triton/PBS with 2% normal goat serum. After 3 washes in 0.1% Triton/PBS, specific secondary antibodies were added for 2 h at RT in the dark: Donkey anti-Mouse IgG Alexafluor 555 (Abcam, Cambridge, UK), Goat anti-Rabbit IgG Alexafluor 555 (Abcam, Cambridge, UK), 1:1000 dilution in 0.1% Triton/PBS with 2% normal goat serum. Following 3 washes in 0.1% Triton/PBS, nuclei were stained with DAPI (2 μg/mL, Sigma-Aldrich) for 5 min. Glass coverslips were mounted by using Ultracruz Aqueous Mounting Medium with DAPI (Santa Cruz Biotechnology). Neurospheres confocal images were obtained with a Nikon EZ-C1 microscope (60× objective) and the z-stack function (1024 steps and 1 μm thickness layers; 40 total stacks). 3D image reconstruction was performed by using Fiji ImageJ2 software, z-project plugin, and selecting the sum stacks’ function. Fluorescence intensity index was estimated as the ratio of markers’ positive cells intensity/total cells fluorescence intensity stained with DAPI per ROI.

[7] = 50 μM, mean ± SD, n.i. = no inhibition

- Papp A→B at 90 min, 100 μM [1]: 28 ± 0.53 ×10⁻⁶ cm/s
Compound: Cc1cc(=O)n(-c2ccccc2)n1C [Antypirine, antipyrine, reference compound]

- GSK-3β % Inhibition @ 50 μM (human recombinant GSK-3β; [7]): completely inactive
- Fyn % Inhibition @ 50 μM (FYNα; [7]): completely inactive
Compound: Br.CN(C)c1ccc(CNc2nc(-c3c[nH]c4ncccc34)cs2)cc1 [Compound 26, N-(4-(Dimethylamino)benzyl)-4-(1H-pyrrolo[2,3-b]pyridin-3-yl)thiazol-2-amine Hydrobromide]
- Neurotoxicity on CGNs (cell viability compared to control) [2]: not neurotoxic
- TREM2 expression (M2 marker) vs LPS [3]: no significant variations

- IC50 (FYNα): 3.48 ± 0.68 µM
Compound: Br.c1cnc2[nH]cc(-c3csc(NCc4ccncc4)n3)c2c1 [Compound 27, N-(Pyridin-4-ylmethyl)-4-(1H-pyrrolo[2,3-b]pyridin-3-yl)thiazol-2-amine Hydrobromide]
- Neurosphere dimension (brightfield object total area), maturation [4]: noticeable maturation at days 6 and 7
- Neurosphere number (object count per image), neurogenesis [4]: pronounced neurogenesis

- IC50 (human recombinant GSK-3β): 2.45 ± 0.54 µM
- Fyn % Inhibition @ 50 μM (FYNα; [7]): n.i.
Compound: Br.CN(Cc1ccccc1)c1nc(-c2c[nH]c3ncccc23)cs1 [Compound 33, N-Benzyl-N-methyl-4-(1H-pyrrolo[2,3-b]pyridin-3-yl)thiazol-2-amine Hydrobromide]
- Neuroprotection on CGNs (cell viability after serum/potassium deprivation) [5]: almost equipotent to inactive compounds

- inhibition at 50 µM (human recombinant GSK-3β; [7]): 9.8%
- Fyn % Inhibition @ 50 μM (FYNα; [7]): n.i.
Compound: Br.Cn1cc(-c2csc(NCc3ccccc3)n2)c2cccnc21 [Compound 35]

- inhibition at 50 µM (human recombinant GSK-3β; [7]): 4%
- Fyn % Inhibition @ 50 μM (FYNα; [7]): n.i.
Compound: Br.C=CCn1cc(-c2csc(NCc3ccccc3)n2)c2cccnc21 [Compound 36]

Compound: c1ccc(CNc2nnc(-c3c[nH]c4ncccc34)s2)cc1 [Compound 40, N-Benzyl-5-(1H-pyrrolo[2,3-b]pyridin-3-yl)-1,3,4-thiadiazol-2-amine]
- Neurotoxicity on CGNs (cell viability compared to control) [2]: not neurotoxic
- Neuroprotection on CGNs (cell viability after serum/potassium deprivation) [5]: almost equipotent to inactive compounds
- Neurosphere number (object count per image), neurogenesis [4]: pronounced neurogenesis
- Differentiation toward astrocytes (GFAP) [6]: negatively affected astrocytic differentiation
- Differentiation toward neurons (DCX) [6]: mild increment
- Differentiation toward oligodendrocytes (OLIG2) [6]: inactive regarding oligodendrocytes
- TREM2 expression (M2 marker) vs LPS [3]: no significant variations

- IC50 (FYNα): 0.2 ± 0.02 µM
Compound: Br.Cc1sc(NCc2ccncc2)nc1-c1c[nH]c2ncccc12 [Compound 42, 5-Methyl-N-(pyridin-4-ylmethyl)-4-(1H-pyrrolo[2,3-b]pyridin-3-yl)thiazol-2-amine Hydrobromide]
- Neurosphere dimension (brightfield object total area), maturation [4]: premature increase in dimension

- IC50 (human recombinant GSK-3β): 6.84 ± 0.17 µM
- inhibition at 50 µM (FYNα; 50 μM, mean ± SD, n.i. = no inhibition, read-out: Fyn % Inhibition @ 50 μM): 47.2%
Compound: Nc1nc(-c2c[nH]c3ncccc23)cs1 [Compound I]
